According to patent publication US5380745A, “Medicinal composition” (Meiiji Seika Kaisha, Ltd., priority 1991, dated 1995):
Read-outs that look alike come from different tables or passages of the source.

Key:
[1] = tested on: cattle nematodes in the digestive tract; experiment: Anthelmintic effect on cattle nematodes in the digestive tract (EPG); assay type: in vivo; conditions: oral 25 mg PF1022 substance/kg/day for two days
Procedure: (§1) The medicinal composition of the present invention was administered to animals in an amount corresponding to a definite amount of PF1022 substance. The whole feces was collected everyday and the number of parasitic eggs per gram of the feces (EPG) were counted. Two weeks after the initiation of the administration, each animal was dissected and the number of parasites remaining in the intestine were counted.
(§2) The medicinal composition obtained in Example 1 was orally administered in a dose as corresponding to 25 mg of PF1022 substance/kg/day for two days. As a control, PF1022 substance alone was administered in the same manner as those described above. […] Each of the medicinal composition as shown in Table 4 was orally administered in a dose corresponding to 5 mg of PF1022 substance/kg/day for two days. As a control, PF1022 substance alone was orally administered in a dose of 25 mg/kg/day for two days.

[2] = Water solubility of PF1022 substance (elution into buffer, HPLC); assay type: physicochemical; conditions: aqueous buffer, 40 °C, 50 mg PF1022 substance in 50 ml, read-out: Concentration of PF1022 substance
Procedure: The compositions of Examples 1 to 9 and PF1022 substance alone, employed as a control, were tested. Each composition was weighed in a 100 ml-Erlenmeyer flask, in an amount corresponding to 50 mg of PF1022 substance and 50 ml of McDougall buffer or Clark Lubs buffer was added thereto. McDougall buffer is prepared by dissolving 7.43 g of sodium hydrogencarbonate, 7.0 g of disodium phosphate 12-hydrate, 0.34 g of sodium chloride, 0.43 g of potassium chloride, 0.10 g of magnesium chloride hexahydrate and 0.05 g of calcium chloride in 1,000 ml of water and saturating the mixture with carbon dioxide gas (pH 6.8). Clark Lubs buffer is prepared by adding 50 ml of 0.2N potassium chloride and 10.6 ml of 0.2N hydrochloric acid to 139.4 ml of water (pH 2.0). The mixture was shaken in a thermostat at 40 °±0.5° C. at a vibrational amplitude of 4 cm at 60 rpm to figure eight. Sampling was made with the lapse of time and the amount of the eluate was determined by high performance liquid chromatography.

parasites = conditions: rumenal animals such as cattle, sheep and goat; cited from earlier work
[3] = tested on: parasites in digestive tract of unigastric animals; conditions: used alone; unigastric animals such as fowl, dog, cat and swine; cited from earlier work
[4] = PF1022 substance, in words, cited from earlier work
[5] = tested on: sheep nematodes in the digestive tract; experiment: Anthelmintic effect on sheep nematodes in the digestive tract (EPG); assay type: in vivo; conditions: PF1022 substance alone oral 25 mg/kg/day for two days
Procedure: as §1, §2

What does the source list for `CC(C)CC1C(=O)OC(Cc2ccccc2)C(=O)N(C)C(CC(C)C)C(=O)OC(C)C(=O)N(C)C(CC(C)C)C(=O)OC(Cc2ccccc2)C(=O)N(C)C(CC(C)C)C(=O)OC(C)C(=O)N1C` (stereo not shown) [PF1022 substance]?
Number of eggs per gram of feces (EPG) ([1]; day 0): 112 EPG; Number of eggs per gram of feces (EPG) ([1]; day 1): 80 EPG; Number of eggs per gram of feces (EPG) ([1]; day 3): 34 EPG; Number of eggs per gram of feces (EPG) ([1]; day 5): 41 EPG; Number of eggs per gram of feces (EPG) ([1]; day 7): 49 EPG; Number of eggs per gram of feces (EPG) ([1]; day 10): 36 EPG; Number of eggs per gram of feces (EPG) ([1]; day 14): 40 EPG; solubility at 1 h ([2]; Clark Lubs buffer (pH 2.0)): < 1 µg/mL; solubility at 24 h ([2]; Clark Lubs buffer (pH 2.0)): < 1 µg/mL; solubility at 1 h ([2]; McDougall buffer (pH 6.8)): < 1 µg/mL; solubility at 24 h ([2]; McDougall buffer (pH 6.8)): < 1 µg/mL; dosage required relative to unigastric animals (parasites): 5 to 10 times; anthelmintic effect [3]: particularly marked anthelmintic effect; solubility in water [4]: extremely poor solubility in water; solubility in water ([4]; listed as PF1022 Substance): practically insoluble or hardly dispersible in water; Number of eggs per gram of feces (EPG) ([5]; day 0): 2997 EPG; Number of eggs per gram of feces (EPG) ([5]; day 1): 2313 EPG; Number of eggs per gram of feces (EPG) ([5]; day 3): 13 EPG; Number of eggs per gram of feces (EPG) ([5]; day 5): 9 EPG; Number of eggs per gram of feces (EPG) ([5]; day 7): 32 EPG; Number of eggs per gram of feces (EPG) ([5]; day 10): 12 EPG; Number of eggs per gram of feces (EPG) ([5]; day 14): 8 EPG
